Laboratory results: patent publication US20260151375A1, “CDK2 INHIBITORS AND METHODS OF USING THE SAME” (Cedilla Therapeutics, Inc., priority 2022, published 2026)
pIC50: −log10 of the molar value. Each block holds one compound with its values, some of them ahead of it.

What was measured:
[1] = biological target: T1, CDK2/Cyclin E1 (Homo sapiens, UniProt P24941); experiment: Caliper Assay (LabChip EZ Reader mobility shift assay), inhibition of CDK2/Cyclin E1 activity; assay type: biochemical; settings: 2.5 nM CDK2/Cyclin E1(14-475), 100 μM ATP, 30 min preincubation; read-out: Caliper Assay (CDK2/CCNE1): IC50
T1 construct: purchased 14-475
Procedure, shortened: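 Compounds were preincubated 30 min with CDK2/Cyclin E1(14-475), then run for 100 min with 2.5 nM enzyme, 100 μM ATP and 1.5 μM 5-FAM-QSPKKG peptide in HEPES pH 7.5 (final). Reactions were EDTA-stopped and substrate-to-product conversion read by mobility shift. IC50 came from a four-parameter fit.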

[2] = test system: Kuramochi cells; experiment: IncuCyte Kuramochi Assay (cell proliferation); assay type: cell-based; settings: 72 h, Kuramochi cells labeled with mApple-H2B, cell count, read-out: IncuCyte - Kuramochi RB-WT: IC50
Procedure, shortened: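 GI50 came from dose-response fits of cell-count fold change between 0 and 72 h, normalized to DMSO controls. Counts were fluorescent nuclei from live-cell images over a 10-point, ½ log series starting at 20 μM.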

Structure (SMILES): O=C(c1cncs1)N1CC(c2nc3cc(Oc4ccccc4)ccc3o2)C2(C1)CN(C(=O)[C@H]1CC1(F)F)C2 (stereo partly drawn) [I-145, (2-((R)-2,2-difluorocyclopropane-1-carbonyl)-8-(5-phenoxybenzo[d]oxazol-2-yl)-2,6-diazaspiro[3.4]octan-6-yl)(thiazol-5-yl)methanone]
- pIC50 [1]: < 5.00
- pIC50 [2]: < 5.00

Structure (SMILES): CC(C)(C#N)C(=O)N1CC2(CN(Cc3cnccn3)CC2c2nnc(C(F)(F)c3ccc(Cl)c(Cl)c3)o2)C1 (stereo not shown) [I-146]
- pIC50 [1]: < 4.00
- pIC50 [2]: < 5.00

Structure (SMILES): O=C([C@H]1CC1(F)F)N1CC2(C1)CN(C(=O)N1CCOCC1)CC2c1nnc(C(F)(F)c2ccc(Cl)c(Cl)c2)o1 (stereo partly drawn) [I-148, (8-(5-((3,4-dichlorophenyl)difluoromethyl)-1,3,4-oxadiazol-2-yl)-2-((R)-2,2-difluorocyclopropane-1-carbonyl)-2,6-diazaspiro[3.4]octan-6-yl)(morpholino)methanone]
- pIC50 [1]: < 5.00
- pIC50 [2]: < 5.00

Structure (SMILES): O=C(c1nncs1)N1CC(c2nnc(C(F)(F)c3ccc(Cl)c(Cl)c3)o2)C2(C1)CN(C(=O)[C@H]1CC1(F)F)C2 (stereo partly shown) [I-149]
- pIC50 [1]: < 5.00
- pIC50 [2]: < 5.00

Structure (SMILES): O=C(c1cncs1)N1CC(c2nnc(C(F)(F)c3ccc(Cl)c(Cl)c3)o2)C2(C1)CN(C1CCOC1)C2 (stereo not shown) [I-154, (8-(5-((3,4-dichlorophenyl)difluoromethyl)-1,3,4-oxadiazol-2-yl)-2-(tetrahydrofuran-3-yl)-2,6-diazaspiro[3.4]octan-6-yl)(thiazol-5-yl)methanone]
- pIC50 [1]: < 5.00
- pIC50 [2]: < 5.00

Structure (SMILES): O=C(c1noc2ccccc12)N1CC(c2nnc(C(F)(F)c3ccc(Cl)c(Cl)c3)o2)C2(C1)CN(C(=O)[C@H]1CC1(F)F)C2 (stereo partly drawn) [I-156, benzo[d]isoxazol-3-yl(8-(5-((3,4-dichlorophenyl)difluoromethyl)-1,3,4-oxadiazol-2-yl)-2-((R)-2,2-difluorocyclopropane-1-carbonyl)-2,6-diazaspiro[3.4]octan-6-yl)methanone]
- pIC50 [1]: < 5.00
- pIC50 [2]: < 5.00

Structure (SMILES): O=C(C1CCOCC1)N1CC(c2nnc(C(F)(F)c3ccc(Cl)c(Cl)c3)o2)C2(C1)CN(C(=O)[C@H]1CC1(F)F)C2 (stereo partly shown) [I-158]
- pIC50 [1]: < 5.00
- pIC50 [2]: < 5.00

Structure (SMILES): O=C(c1cc(C(F)(F)F)n[nH]1)N1CC(c2nnc(C(F)(F)c3ccc(Cl)c(Cl)c3)o2)C2(C1)CN(C(=O)[C@H]1CC1(F)F)C2 (stereo partly shown) [I-161]
- pIC50 [1]: < 5.00
- pIC50 [2]: 5.00 to 5.30

Structure (SMILES): O=C(c1[nH]ncc1F)N1CC(c2nnc(C(F)(F)c3ccc(Cl)c(Cl)c3)o2)C2(C1)CN(C(=O)[C@H]1CC1(F)F)C2 (stereo partly shown) [I-162]
- pIC50 [1]: < 5.00
- pIC50 [2]: < 5.00

Structure (SMILES): O=C(c1nccnc1O)N1CC(c2nnc(C(F)(F)c3ccc(Cl)c(Cl)c3)o2)C2(C1)CN(C(=O)[C@H]1CC1(F)F)C2 (stereo partly shown) [I-166]
- pIC50 [1]: < 5.00
- pIC50 [2]: < 5.00

Structure (SMILES): O=C(c1cncs1)N1CC(c2nnc(C(F)(F)c3ccc(Cl)c(Cl)c3)o2)C2(C1)CN(C(=O)[C@@H]1CCCN1)C2 (stereo partly shown) [I-169 2nd]
- pIC50 [1]: < 5.00
- pIC50 [2]: < 5.00

Structure (SMILES): O=C(c1cncs1)N1CC(c2nnc(C(F)(F)c3ccc(Cl)c(Cl)c3)o2)C2(C1)CN(C(=O)C1CNC1)C2 (stereo not shown) [I-173]
- pIC50 [1]: < 5.00
- pIC50 [2]: < 5.00

Structure (SMILES): CC1(C(=O)N2CC3(C2)CN(c2ncnc4ncsc24)CC3c2nnc(C(F)(F)c3ccc(Cl)c(Cl)c3)o2)CC1(F)F (stereo not shown) [I-174, (8-(5-((3,4-dichlorophenyl)difluoromethyl)-1,3,4-oxadiazol-2-yl)-6-(thiazolo[4,5-d]pyrimidin-7-yl)-2,6-diazaspiro[3.4]octan-2-yl)(2,2-difluoro-1-methylcyclopropyl)methanone]
- pIC50 [1]: 5.00 to 6.00
- pIC50 [2]: < 5.00

Structure (SMILES): CC(C)(C#N)C(=O)N1CC2(CN(C(=O)c3cnccn3)CC2c2nnc(C(F)(F)c3ccc(Cl)c(Cl)c3)o2)C1 (stereo not shown) [I-175]
- pIC50 [1]: < 5.00
- pIC50 [2]: < 5.00

Structure (SMILES): O=C(c1cnccn1)N1CC(c2nnc(C(F)(F)c3ccc(Cl)c(Cl)c3)o2)C2(C1)CN(C(=O)[C@H]1CC1(F)F)C2 (stereo partly drawn) [I-176, (8-(5-((3,4-dichlorophenyl)difluoromethyl)-1,3,4-oxadiazol-2-yl)-2-((R)-2,2-difluorocyclopropane-1-carbonyl)-2,6-diazaspiro[3.4]octan-6-yl)(pyrazin-2-yl)methanone]
- pIC50 [1]: 5.00 to 6.00
- pIC50 [2]: < 5.00

Structure (SMILES): CC(C)(O)C(=O)N1CC2(CN(C(=O)c3cncs3)CC2c2nnc(C(F)(F)c3ccc(Cl)c(Cl)c3)o2)C1 (stereo not shown) [I-178]
- pIC50 [1]: < 5.00
- pIC50 [2]: < 5.00

Second part, led by results:

- pIC50 [1]: < 4.00
Structure (SMILES): O=C(C1CNC1)N1CC(c2nnc(C(F)(F)c3ccc(Cl)c(Cl)c3)o2)C2(C1)CN(C(=O)[C@H]1CC1(F)F)C2 (stereo partly shown) [I-147]
- pIC50 [2]: < 5.00

- pIC50 [1]: < 5.00
Structure (SMILES): O=C(C1CCNCC1)N1CC(c2nnc(C(F)(F)c3ccc(Cl)c(Cl)c3)o2)C2(C1)CN(C(=O)[C@H]1CC1(F)F)C2 (stereo partly drawn) [I-150, (8-(5-((3,4-dichlorophenyl)difluoromethyl)-1,3,4-oxadiazol-2-yl)-2-((R)-2,2-difluorocyclopropane-1-carbonyl)-2,6-diazaspiro[3.4]octan-6-yl)(piperidin-4-yl)methanone]
- pIC50 [2]: < 5.00

- pIC50 [1]: < 5.00
Structure (SMILES): O=C(c1noc2cc(Cl)ccc12)N1CC(c2nnc(C(F)(F)c3ccc(Cl)c(Cl)c3)o2)C2(C1)CN(C(=O)[C@H]1CC1(F)F)C2 (stereo partly shown) [I-152]
- pIC50 [2]: < 5.00

- pIC50 [1]: < 5.00
Structure (SMILES): O=C(C1COC1)N1CC(c2nnc(C(F)(F)c3ccc(Cl)c(Cl)c3)o2)C2(C1)CN(C(=O)[C@H]1CC1(F)F)C2 (stereo partly shown) [I-153]
- pIC50 [2]: < 5.00

- pIC50 [1]: < 5.00
Structure (SMILES): O=C(c1ccn[nH]1)N1CC(c2nnc(C(F)(F)c3ccc(Cl)c(Cl)c3)o2)C2(C1)CN(C(=O)[C@H]1CC1(F)F)C2 (stereo partly shown) [I-155]
- pIC50 [2]: < 5.00

- pIC50 [1]: 5.00 to 6.00
Structure (SMILES): O=C(c1cncs1)N1CC(c2nnc(C(F)(F)c3ccc(Cl)c(Cl)c3)o2)C2(C1)CN(C(=O)[C@H]1CCCO1)C2 (stereo partly shown) [I-157]
- pIC50 [2]: < 5.00

- pIC50 [1]: < 5.00
Structure (SMILES): CC(C)(C#N)C(=O)N1CC2(CN(Cc3cncs3)CC2c2nnc(C(F)(F)c3ccc(Cl)c(Cl)c3)o2)C1 (stereo not shown) [I-159, 3-(8-(5-((3,4-dichlorophenyl)difluoromethyl)-1,3,4-oxadiazol-2-yl)-6-(thiazol-5-ylmethyl)-2,6-diazaspiro[3.4]octan-2-yl)-2,2-dimethyl-3-oxopropanenitrile]
- pIC50 [2]: < 5.00

- pIC50 [1]: < 5.00
Structure (SMILES): O=C(C#CCO)N1CC(c2nnc(C(F)(F)c3ccc(Cl)c(Cl)c3)o2)C2(C1)CN(C(=O)[C@H]1CC1(F)F)C2 (stereo partly shown) [I-160]
- pIC50 [2]: < 5.00

- pIC50 [1]: < 5.00
Structure (SMILES): O=C(c1[nH]ncc1C(F)(F)F)N1CC(c2nnc(C(F)(F)c3ccc(Cl)c(Cl)c3)o2)C2(C1)CN(C(=O)[C@H]1CC1(F)F)C2 (stereo partly shown) [I-163]
- pIC50 [2]: < 5.00

- pIC50 [1]: < 5.00
Structure (SMILES): O=C(c1cncs1)N1CC(c2nnc(C(F)(F)c3ccc(Cl)c(Cl)c3)o2)C2(C1)CN(C(=O)[C@@H]1CCCO1)C2 (stereo partly shown) [I-164]
- pIC50 [2]: < 5.00

- pIC50 [1]: 5.00 to 6.00
Structure (SMILES): O=C(c1cnc2ccccc2n1)N1CC(c2nnc(C(F)(F)c3ccc(Cl)c(Cl)c3)o2)C2(C1)CN(C(=O)[C@H]1CC1(F)F)C2 (stereo partly shown) [I-165]
- pIC50 [2]: < 5.00

- pIC50 [1]: < 5.00
Structure (SMILES): O=C(c1cn[nH]c1C(F)(F)F)N1CC(c2nnc(C(F)(F)c3ccc(Cl)c(Cl)c3)o2)C2(C1)CN(C(=O)[C@H]1CC1(F)F)C2 (stereo partly drawn) [I-167, (8-(5-((3,4-dichlorophenyl)difluoromethyl)-1,3,4-oxadiazol-2-yl)-2-((R)-2,2-difluorocyclopropane-1-carbonyl)-2,6-diazaspiro[3.4]octan-6-yl)(5-(trifluoromethyl)-1H-pyrazol-4-yl)methanone]
- pIC50 [2]: < 5.00

- pIC50 [1]: < 5.00
Structure (SMILES): O=C(c1cncs1)N1CC(c2nnc(C(F)(F)c3ccc(Cl)c(Cl)c3)o2)C2(C1)CN(C(=O)[C@H]1CCCN1)C2 (stereo partly drawn) [I-169 1st, 2-(2-(D-prolyl)-6-(thiazole-5-carbonyl)-2,6-diazaspiro[3.4]octan-8-yl)-5-((3,4-dichlorophenyl)difluoromethyl)-1,3,4-oxadiazole]
- pIC50 [2]: 5.00 to 5.30

- pIC50 [1]: < 5.00
Structure (SMILES): CC(C)(C(=O)N1CC2(C1)CN(c1ncnc3ncsc13)CC2c1nnc(C(F)(F)c2ccc(Cl)c(Cl)c2)o1)C(F)F (stereo not shown) [I-170, 1-(8-(5-((3,4-dichlorophenyl)difluoromethyl)-1,3,4-oxadiazol-2-yl)-6-(thiazolo[4,5-d]pyrimidin-7-yl)-2,6-diazaspiro[3.4]octan-2-yl)-3,3-difluoro-2,2-dimethylpropan-1-one]
- pIC50 [2]: < 5.00

- pIC50 [1]: < 5.00
Structure (SMILES): O=C([C@H]1CC1(F)F)N1CC(c2nnc(C(F)(F)c3ccc(Cl)c(Cl)c3)o2)C2(C1)CN(C(=O)[C@H]1CC1(F)F)C2 (stereo partly shown) [I-171]
- pIC50 [2]: < 5.00

- pIC50 [1]: < 5.00
Structure (SMILES): CC(C)(C#N)C(=O)N1CC2(CN(C(=O)c3cn[nH]c3)CC2c2nnc(C(F)(F)c3ccc(Cl)c(Cl)c3)o2)C1 (stereo not shown) [I-177]
- pIC50 [2]: < 5.00

- pIC50 [1]: < 5.00
Structure (SMILES): CC1(C)OC1C(=O)N1CC2(CN(C(=O)c3cncs3)CC2c2nnc(C(F)(F)c3ccc(Cl)c(Cl)c3)o2)C1 (stereo not shown) [I-179, (8-(5-((3,4-dichlorophenyl)difluoromethyl)-1,3,4-oxadiazol-2-yl)-2-(3,3-dimethyloxirane-2-carbonyl)-2,6-diazaspiro[3.4]octan-6-yl)(thiazol-5-yl)methanone]
- pIC50 [2]: 5.00 to 5.30

- pIC50 [1]: < 5.00
Structure (SMILES): O=C(c1cncs1)N1CC(c2nnc(C(F)(F)c3ccc(Cl)c(Cl)c3)o2)C2(CC(C(=O)N3CCC3)C2)C1 (stereo not shown) [I-180]
- pIC50 [2]: < 5.00

- pIC50 [1]: < 5.00
Structure (SMILES): O=C(N1CC2(C1)CN(c1ncnc3ncsc13)CC2c1nnc(C(F)(F)c2ccc(Cl)c(Cl)c2)o1)C1(C(F)(F)F)CC1 (stereo not shown) [I-181, (8-(5-((3,4-dichlorophenyl)difluoromethyl)-1,3,4-oxadiazol-2-yl)-6-(thiazolo[4,5-d]pyrimidin-7-yl)-2,6-diazaspiro[3.4]octan-2-yl)(1-(trifluoromethyl)cyclopropyl)methanone]
- pIC50 [2]: < 5.00
